Structures are written as SMILES. pIC50: −log10 of the molar value. Calls of active or inactive are those of the source. The calls are words filed in the database; no cut-off is given here.

Broadly, the pIC50 is the negative decadic logarithm of the IC50, by convention in mol/L.

The target of experiment [1] is T1, Nicotinamide N-methyltransferase (Homo sapiens, UniProt P40261).
T1 sequence (P40261 whole entry): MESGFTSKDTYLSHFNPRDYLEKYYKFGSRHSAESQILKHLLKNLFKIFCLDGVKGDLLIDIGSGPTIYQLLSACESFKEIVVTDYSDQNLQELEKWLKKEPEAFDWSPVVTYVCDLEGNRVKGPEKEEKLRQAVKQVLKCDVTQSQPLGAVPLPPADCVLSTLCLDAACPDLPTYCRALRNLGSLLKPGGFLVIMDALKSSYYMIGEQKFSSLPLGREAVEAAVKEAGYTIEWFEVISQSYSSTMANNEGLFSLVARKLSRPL
Briefly: Inhibition of wild-type human full length NNMT expressed in Escherichia coli BL21(DE3) cells assessed as reduction in 1-methyl-nicotinamide formation pre-incubated for 10 mins followed by AdoMet and nicotinamide addition measured after 30 mins by UHP-HILIC/Q-TOF-MS analysis.

The test system of experiment [2] is HSC-2. In words: Antiproliferative activity against human HSC2 cells assessed as reduction in cell viability at 1 to 100 uM measured up to 72 hrs by MTT assay. In kind it is functional, cell-based. In general terms: Formazan colour is commonly taken as a measure of viable cells.
In experiment [3] the test system is HSC-2. Briefly: Antiproliferative activity against human HSC2 cells assessed as reduction in cell viability at 100 uM measured after 72 hrs by MTT assay relative to control. The experiment is classed as functional.
Experiment [4] has as its system HSC-2. Briefly: Antiproliferative activity against human HSC2 cells assessed as reduction in cell viability at 100 uM measured after 48 hrs by MTT assay relative to control. The experiment is classed as functional.
Experiment [5] has as its system HSC-2. In words: Antiproliferative activity against human HSC2 cells assessed as reduction in cell viability at 50 uM measured after 48 hrs by MTT assay relative to control. The experiment is classed as functional.
Experiment [6] deals with HSC-2. Briefly: Antiproliferative activity against human HSC2 cells assessed as reduction in cell viability at 10 uM measured after 48 hrs by MTT assay relative to control. The experiment is classed as functional.

Regarding `NC(=O)c1cccc(CN(CCCCC(=O)O)C[C@H]2O[C@@H](n3cnc4c(N)ncnc43)[C@H](O)[C@@H]2O)c1`, the pIC50 in experiment [1] was less than 3.60.

With `Nc1ncnc2c1ncn2[C@@H]1O[C@H](CN(CCC[C@H](N)C(=O)O)Cc2ccc3ccccc3c2)[C@@H](O)[C@H]1O`, the negative logarithm of the IC50 (pIC50) in experiment [1] was less than 3.60. In addition, the outcome in the experiment on HSC-2 [2] was inactive.

For the compound `Nc1ncnc2c1ncn2[C@@H]1O[C@H](CN(CC[C@H](N)C(=O)O)Cc2ccc3ccccc3c2)[C@@H](O)[C@H]1O`, the Activity worked out at 44% in the experiment on HSC-2 [3], 27% in the experiment with HSC-2 [4], 21% in the experiment with HSC-2 [5] and 20% with HSC-2 [6].

Regarding `Nc1ncnc2c1ncn2[C@@H]1O[C@H](CN(CCCCC(=O)O)Cc2cccc(C(=O)O)c2)[C@@H](O)[C@H]1O`, the negative logarithm of the IC50 (pIC50) in experiment [1] is less than 3.60.

As to `Nc1ncnc2c1ncn2[C@@H]1O[C@H](CN(CCCC(=O)O)Cc2ccc3ccccc3c2)[C@@H](O)[C@H]1O`, the pIC50 in experiment [1] is less than 3.60.

Turning to `COC(=O)c1cccc(CN(C[C@H]2O[C@@H](n3cnc4c(N)ncnc43)[C@H](O)[C@@H]2O)C(C)C)c1`, the pIC50 in experiment [1] is less than 3.60.

For the compound `NC(=O)c1cccc(CN(CC[C@H](N)C(=O)O)C[C@H]2O[C@@H](n3cnc4c(N)ncnc43)[C@H](O)[C@@H]2O)c1`, the result in the experiment on HSC-2 [2] was inactive.

For `CC(C)N(Cc1cccc(C(N)=O)c1)C[C@H]1O[C@@H](n2cnc3c(N)ncnc32)[C@H](O)[C@@H]1O`, the pIC50 in experiment [1] was less than 3.60.

Take `COC(=O)c1cccc(CN(CCCCC(=O)O)C[C@H]2O[C@@H](n3cnc4c(N)ncnc43)[C@H](O)[C@@H]2O)c1`: the pIC50 in experiment [1] was less than 3.60.

On to `NC(=O)CCCN(Cc1cccc(C(=O)O)c1)C[C@H]1O[C@@H](n2cnc3c(N)ncnc32)[C@H](O)[C@@H]1O`, for which the pIC50 in experiment [1] was less than 3.60.

For `CC(C)N(Cc1cccc(C(=O)O)c1)C[C@H]1O[C@@H](n2cnc3c(N)ncnc32)[C@H](O)[C@@H]1O`, in experiment [1], the pIC50 is less than 3.60.

On to `Nc1ncnc2c1ncn2[C@@H]1O[C@H](CN(CCCCC(=O)O)Cc2ccc3ccccc3c2)[C@@H](O)[C@H]1O`, for which the pIC50 in experiment [1] was less than 3.60.

In the case of `NC(=O)CCCN(Cc1cccc(C(N)=O)c1)C[C@H]1O[C@@H](n2cnc3c(N)ncnc32)[C@H](O)[C@@H]1O`, the pIC50 in experiment [1] was less than 3.60.

Take `NC(=O)CCCCN(Cc1cccc(C(N)=O)c1)C[C@H]1O[C@@H](n2cnc3c(N)ncnc32)[C@H](O)[C@@H]1O`: the negative logarithm of the IC50 (pIC50) in experiment [1] is less than 3.60.

On to `CC(C)N(Cc1ccc2ccccc2c1)C[C@H]1O[C@@H](n2cnc3c(N)ncnc32)[C@H](O)[C@@H]1O`, for which, in experiment [1], the pIC50 is 3.89.

Take `NC(=O)c1cccc(CCN(CCC[C@H](N)C(=O)O)C[C@H]2O[C@@H](n3cnc4c(N)ncnc43)[C@H](O)[C@@H]2O)c1`: the pIC50 in experiment [1] is 5.36. Moreover, the result in the experiment with HSC-2 [2] was inactive.

Take `NC(=O)CCCCN(Cc1cccc(C(=O)O)c1)C[C@H]1O[C@@H](n2cnc3c(N)ncnc32)[C@H](O)[C@@H]1O`: the pIC50 in experiment [1] was less than 3.60.

Take `COC(=O)c1cccc(CN(CCCC(N)=O)C[C@H]2O[C@@H](n3cnc4c(N)ncnc43)[C@H](O)[C@@H]2O)c1`: the negative logarithm of the IC50 (pIC50) in experiment [1] is less than 3.60.

`Nc1ncnc2c1ncn2[C@@H]1O[C@H](CN(CCCC(=O)O)Cc2cccc(C(=O)O)c2)[C@@H](O)[C@H]1O`: in experiment [1], the pIC50 is less than 3.60.

Regarding `NC(=O)c1cccc(CN(CCCC(=O)O)C[C@H]2O[C@@H](n3cnc4c(N)ncnc43)[C@H](O)[C@@H]2O)c1`, the pIC50 in experiment [1] was less than 3.60.

As to `NC(=O)CCCN(Cc1ccc2ccccc2c1)C[C@H]1O[C@@H](n2cnc3c(N)ncnc32)[C@H](O)[C@@H]1O`, the pIC50 in experiment [1] is 3.95.

`Nc1ncnc2c1ncn2[C@@H]1O[C@H](CSCC[C@H](N)C(=O)O)[C@@H](O)[C@H]1O` [S-ADENOSYLHOMOCYSTEINE]: the pIC50 in experiment [1] was 4.45.

`COC(=O)c1cccc(CN(CCCCC(N)=O)C[C@H]2O[C@@H](n3cnc4c(N)ncnc43)[C@H](O)[C@@H]2O)c1`: in experiment [1], the pIC50 is less than 3.60.

Regarding `Nc1ncnc2c1ncn2[C@@H]1O[C@H](C[C@@H](N)CC[C@H](N)C(=O)O)[C@@H](O)[C@H]1O` [SINEFUNGIN], in experiment [1], the pIC50 was 4.90.

As to `COC(=O)c1cccc(CN(CCCC(=O)O)C[C@H]2O[C@@H](n3cnc4c(N)ncnc43)[C@H](O)[C@@H]2O)c1`, the negative logarithm of the IC50 (pIC50) in experiment [1] is less than 3.60.

The values above are taken from ChEMBL document CHEMBL4304774, “Bisubstrate Inhibitors of Nicotinamide N-Methyltransferase (NNMT) with Enhanced Activity” (J Med Chem, 2019).
